The text below walks through data of patent US11802111B2, “Cyclobutyl amide monoacylglycerol lipase modulators” (Janssen Pharmaceutica NV, priority 2020, dated 2023).

SMILES strings stand for the structures.

For this test, the target named is human MGL from HeLa cells (Homo sapiens (Human), UniProt Q99685). Briefly: MGL in vitro activity assay ([glycerol-1,3-3H]-oleoyl glycerol hydrolysis, activated carbon filtration). The following applies: 300 nM [Glycerol-1,3-3H]-oleoyl glycerol, one hour. It counts as biochemical. The procedure, abridged: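 Activity measured as tritium in the flow-through after activated carbon filtration of a 1 h reaction containing 300 nM 3H-oleoyl glycerol, compound and HeLa-derived human MGL. Compounds screened at 10 μM; IC50 series start at an empirically chosen highest concentration.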
human MGL from HeLa cells, sequence (Q99685 whole entry): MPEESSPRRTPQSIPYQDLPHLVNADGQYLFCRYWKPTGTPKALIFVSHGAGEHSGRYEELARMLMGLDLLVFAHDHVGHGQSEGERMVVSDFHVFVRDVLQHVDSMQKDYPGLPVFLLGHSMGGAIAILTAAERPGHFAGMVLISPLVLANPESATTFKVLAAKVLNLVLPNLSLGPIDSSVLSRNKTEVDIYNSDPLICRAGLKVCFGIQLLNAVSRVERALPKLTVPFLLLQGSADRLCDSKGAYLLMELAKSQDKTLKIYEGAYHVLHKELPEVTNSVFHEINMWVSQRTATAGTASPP
The term IC50 denotes the midpoint of a concentration-inhibition curve. Read a low IC50 as greater potency in that assay. Compound `C[C@]1(O)C[C@@H](C(=O)N2CC3(CCC(Cn4ccc5cccnc54)CC3)C2)C1` [Example 400, (7-((1H-Pyrrolo[2,3-b]pyridin-1-yl)methyl)-2-azaspiro[3.5]nonan-2-yl)((1s,3s)-3-hydroxy-3-methylcyclobutyl)methanone] had an IC50 of 311 nM. Take `Cn1ccc2ccc(CC3CCC4(CC3)CN(C(=O)[C@H]3C[C@@](C)(O)C3)C4)nc21` [Example 401, ((1s,3s)-3-Hydroxy-3-methylcyclobutyl)(7-((1-methyl-1H-pyrrolo[2,3-b]pyridin-6-yl)methyl)-2-azaspiro[3.5]nonan-2-yl)methanone]: half-maximal inhibition (IC50) was put at 66 nM. For `Cn1ncc2ccc(CC3CCC4(CC3)CN(C(=O)[C@H]3C[C@@](C)(O)C3)C4)cc21` [Example 402, ((1s,3s)-3-Hydroxy-3-methylcyclobutyl)(7-((1-methyl-1H-indazol-6-yl)methyl)-2-azaspiro[3.5]nonan-2-yl)methanone], the IC50 is 185 nM. In turn, `Cn1ncc2ccc(CC3CCC4(CC3)CN(C(=O)[C@H]3C[C@@](C)(O)C3)C4)nc21` [Example 403, ((1s,3s)-3-Hydroxy-3-methylcyclobutyl)(7-((1-methyl-1H-pyrazolo[3,4-b]pyridin-6-yl)methyl)-2-azaspiro[3.5]nonan-2-yl)methanone] had an IC50 of 449 nM. The same measure for `Cc1ccc(OC2CCC3(CC2)CN(C(=O)[C@H]2C[C@@](C)(O)C2)C3)cc1` [Example 404, ((1s,3s)-3-Hydroxy-3-methylcyclobutyl)(7-(p-tolyloxy)-2-azaspiro[3.5]nonan-2-yl)methanone]: 53 nM; for `Cc1ccc(OC2CCC3(CC2)CN(C(=O)[C@H]2C[C@@](C)(O)C2)C3)cc1C` [Example 405, (7-(3,4-Dimethylphenoxy)-2-azaspiro[3.5]nonan-2-yl)((1s,3s)-3-hydroxy-3-methylcyclobutyl)methanone]: 32 nM. Take `Cc1cccc(OC2CCC3(CC2)CN(C(=O)[C@H]2C[C@@](C)(O)C2)C3)c1C` [Example 406, (7-(2,3-Dimethylphenoxy)-2-azaspiro[3.5]nonan-2-yl)((1s,3s)-3-hydroxy-3-methylcyclobutyl)methanone]: it took 20 nM to reach half-maximal inhibition (IC50). Compound `COc1cc(C)cc(OC2CCC3(CC2)CN(C(=O)[C@H]2C[C@@](C)(O)C2)C3)c1` [Example 407, ((1s,3s)-3-Hydroxy-3-methylcyclobutyl)(7-(3-methoxy-5-methylphenoxy)-2-azaspiro[3.5]nonan-2-yl)methanone] gave an IC50 of 143 nM. As to `COc1cc(OC2CCC3(CC2)CN(C(=O)[C@H]2C[C@@](C)(O)C2)C3)ccc1C` [Example 408, ((1s,3s)-3-Hydroxy-3-methylcyclobutyl)(7-(3-methoxy-4-methylphenoxy)-2-azaspiro[3.5]nonan-2-yl)methanone], the IC50 is 33 nM.

Compound `COc1cccc(OC2CCC3(CC2)CN(C(=O)[C@H]2C[C@@](C)(O)C2)C3)c1C` [Example 409, ((1s,3s)-3-Hydroxy-3-methylcyclobutyl)(7-(3-methoxy-2-methylphenoxy)-2-azaspiro[3.5]nonan-2-yl)methanone] gave an IC50 of 42 nM. Regarding `Cc1ccc(Cl)c(OC2CCC3(CC2)CN(C(=O)[C@H]2C[C@@](C)(O)C2)C3)c1` [Example 410, (7-(2-Chloro-5-methylphenoxy)-2-azaspiro[3.5]nonan-2-yl)((1s,3s)-3-hydroxy-3-methylcyclobutyl)methanone], half-maximal inhibition (IC50) required 2.8 nM.

With `Cc1ccc(OC2CCC3(CC2)CN(C(=O)[C@H]2C[C@@](C)(O)C2)C3)cc1Cl` [Example 411, (7-(3-Chloro-4-methylphenoxy)-2-azaspiro[3.5]nonan-2-yl)((1s,3s)-3-hydroxy-3-methylcyclobutyl)methanone], 9.1 nM corresponded to half-maximal inhibition (IC50). Then `Cc1cc(Cl)ccc1OC1CCC2(CC1)CN(C(=O)[C@H]1C[C@@](C)(O)C1)C2` [Example 412, (7-(4-Chloro-2-methylphenoxy)-2-azaspiro[3.5]nonan-2-yl)((1s,3s)-3-hydroxy-3-methylcyclobutyl)methanone], with 1.4 nM; and `Cc1c(Cl)cccc1OC1CCC2(CC1)CN(C(=O)[C@H]1C[C@@](C)(O)C1)C2` [Example 413, (7-(3-Chloro-2-methylphenoxy)-2-azaspiro[3.5]nonan-2-yl)((1s,3s)-3-hydroxy-3-methylcyclobutyl)methanone], with 22 nM; and `COc1cc(OC2CCC3(CC2)CN(C(=O)[C@H]2C[C@@](C)(O)C2)C3)ccc1Cl` [Example 414, (7-(4-Chloro-3-methoxyphenoxy)-2-azaspiro[3.5]nonan-2-yl)((1s,3s)-3-hydroxy-3-methylcyclobutyl)methanone], with 15 nM. In turn, `C[C@]1(O)C[C@@H](C(=O)N2CC3(CCC(Oc4ccc(C5CC5)c(F)c4)CC3)C2)C1` [Example 415, (7-(4-Cyclopropyl-3-fluorophenoxy)-2-azaspiro[3.5]nonan-2-yl)((1s,3s)-3-hydroxy-3-methylcyclobutyl)methanone] yielded an IC50 of 3.3 nM. In turn, `Cc1ccc(C(F)(F)F)cc1OC1CCC2(CC1)CN(C(=O)[C@H]1C[C@@](C)(O)C1)C2` [Example 416, ((1s,3s)-3-Hydroxy-3-methylcyclobutyl)(7-(2-methyl-5-(trifluoromethyl)phenoxy)-2-azaspiro[3.5]nonan-2-yl)methanone] registered an IC50 of 1.9 nM. For `C[C@]1(O)C[C@@H](C(=O)N2CC3(CCC(Oc4ccc(C(F)(F)F)cn4)CC3)C2)C1` [Example 417, ((1s,3s)-3-Hydroxy-3-methylcyclobutyl)(7-((5-(trifluoromethyl)pyridin-2-yl)oxy)-2-azaspiro[3.5]nonan-2-yl)methanone], it took 29 nM to reach half-maximal inhibition (IC50). On to `C[C@]1(O)C[C@@H](C(=O)N2CC3(CCC(Oc4cc(C(F)(F)F)ccn4)CC3)C2)C1` [Example 418, ((1s,3s)-3-Hydroxy-3-methylcyclobutyl)(7-((4-(trifluoromethyl)pyridin-2-yl)oxy)-2-azaspiro[3.5]nonan-2-yl)methanone], for which the IC50 came to 180 nM. In turn, `CC1(Oc2ccc(C(F)(F)F)cn2)CCC2(CC1)CN(C(=O)[C@H]1C[C@@](C)(O)C1)C2` [Example 419, ((1s,3s)-3-Hydroxy-3-methylcyclobutyl)(7-methyl-7-((5-(trifluoromethyl)pyridin-2-yl)oxy)-2-azaspiro[3.5]nonan-2-yl)methanone] displayed an IC50 of 12 nM. The same measure for `CCC1(Oc2ccc(C(F)(F)F)cn2)CCC2(CC1)CN(C(=O)[C@H]1C[C@@](C)(O)C1)C2` [Example 420, (7-Ethyl-7-((5-(trifluoromethyl)pyridin-2-yl)oxy)-2-azaspiro[3.5]nonan-2-yl)((1s,3s)-3-hydroxy-3-methylcyclobutyl)methanone]: 33 nM; for `C[C@]1(O)C[C@@H](C(=O)N2CC3(CCC(Oc4cccc(C(F)(F)F)n4)CC3)C2)C1` [Example 421, ((1s,3s)-3-Hydroxy-3-methylcyclobutyl)(7-((6-(trifluoromethyl)pyridin-2-yl)oxy)-2-azaspiro[3.5]nonan-2-yl)methanone]: 84 nM; for `CC(F)(F)c1ccc(OC2CCC3(CC2)CN(C(=O)[C@H]2C[C@@](C)(O)C2)C3)nc1` [Example 422, (7-((5-(1,1-Difluoroethyl)pyridin-2-yl)oxy)-2-azaspiro[3.5]nonan-2-yl)((1s,3s)-3-hydroxy-3-methylcyclobutyl)methanone]: 24 nM. `C[C@]1(O)C[C@@H](C(=O)N2CC3(CCC(Oc4ccc(C(F)F)cn4)CC3)C2)C1` [Example 423, (7-((5-(Difluoromethyl)pyridin-2-yl)oxy)-2-azaspiro[3.5]nonan-2-yl)((1s,3s)-3-hydroxy-3-methylcyclobutyl)methanone] yielded an IC50 of 188 nM. `C[C@]1(O)C[C@@H](C(=O)N2CC3(CCC(Oc4ccc(C(F)(F)F)nc4)CC3)C2)C1` [Example 424, ((1s,3s)-3-Hydroxy-3-methylcyclobutyl)(7-((6-(trifluoromethyl)pyridin-3-yl)oxy)-2-azaspiro[3.5]nonan-2-yl)methanone] yielded an IC50 of 99 nM.

`CC(C)(C)c1cccc(OC2CCC3(CC2)CN(C(=O)[C@H]2C[C@@](C)(O)C2)C3)n1` [Example 425, (7-((6-(tert-Butyl)pyridin-2-yl)oxy)-2-azaspiro[3.5]nonan-2-yl)((1s,3s)-3-hydroxy-3-methylcyclobutyl)methanone]: the IC50 is 7.8 nM. Consider `C[C@]1(O)C[C@@H](C(=O)N2CC3(CCC(Oc4ccc(C5CC5)cn4)CC3)C2)C1` [Example 426, (7-((5-Cyclopropylpyridin-2-yl)oxy)-2-azaspiro[3.5]nonan-2-yl)((1s,3s)-3-hydroxy-3-methylcyclobutyl)methanone], for which the IC50 turned out to be 20 nM. On to `C[C@]1(O)C[C@@H](C(=O)N2CC3(CCC(Oc4ccc(OC(F)(F)F)cn4)CC3)C2)C1` [Example 427, ((1s,3s)-3-Hydroxy-3-methylcyclobutyl)(7-((5-(trifluoromethoxy)pyridin-2-yl)oxy)-2-azaspiro[3.5]nonan-2-yl)methanone], for which the IC50 was 28 nM. `Cc1ccc(OC2CCC3(CC2)CN(C(=O)[C@H]2C[C@@](C)(O)C2)C3)nc1C` [Example 428, (7-((5,6-Dimethylpyridin-2-yl)oxy)-2-azaspiro[3.5]nonan-2-yl)((1s,3s)-3-hydroxy-3-methylcyclobutyl)methanone] registered an IC50 of 47 nM.

`Cc1ccc(C)c(OC2CCC3(CC2)CN(C(=O)[C@H]2C[C@@](C)(O)C2)C3)n1` [Example 429, (7-((3,6-Dimethylpyridin-2-yl)oxy)-2-azaspiro[3.5]nonan-2-yl)((1s,3 s)-3-hydroxy-3-methylcyclobutyl)methanone] showed an IC50 of 19 nM. In the case of `Cc1cnc(OC2CCC3(CC2)CN(C(=O)[C@H]2C[C@@](C)(O)C2)C3)c(C)c1` [Example 430, (7-((3,5-Dimethylpyridin-2-yl)oxy)-2-azaspiro[3.5]nonan-2-yl)((1s,3s)-3-hydroxy-3-methylcyclobutyl)methanone], it took 12 nM to reach half-maximal inhibition (IC50). This IC50 lies about 1.6-fold lower than the previous one.
